This passage reports IC50 results from patent US20260365654A1, “PRMT5 INHIBITOR AND USE THEREOF” (SHANGHAI APEIRON THERAPEUTICS COMPANY LIMITED, priority 2022, published 2026).

Bounds are passed on as bounds.

Assay [1] has as its system HCT-116 MTAP(−/−)deleted cells. Put plainly: Inhibitory activity of compounds on the proliferation of HCT-116 MTAP(−/−)deleted cells. The format is cell-based. The conditions noted are these: Cell-Titer Glo, 8 d, 0-10,000 nM, 3-fold dilution, 10 points, 0.1% DMSO. From the text:
Test case 1: Inhibitory activity of compounds on the proliferation of HCT-116 MTAP(−/−)deleted cells Materials and cells: HCT-116 MTAP(−/−)deleted cells were purchased from Botron Healthcare (China); RPMI-1640 medium, fetal bovine serum and penicillin-streptomycin were purchased from Thermo Fisher (United States); 384-well plates were purchased from PerkinElmer (United States); Cell-Titer Glo kit was purchased from Promega (United States).
Cell culture: HCT116 MTAP(−/−)deleted cells were cultured with RPMI 1640 medium containing 10% fetal bovine serum +1% penicillin-streptomycin at 37 °C in 5% CO2. Only cells in the logarithmic growth phase could be used for the test.
Test of inhibitory activity on cell proliferation: The Cell-Titer Glo kit was used to test the proliferation inhibitory activity of the compounds on HCT-116 MTAP(−/−)deleted cells. The cell concentration was adjusted, It was inoculated at 40 μL per well into a 384-well plate and incubated overnight at 37 °C in 5% CO2. 40 μL of the compound was added to each well to reach a final concentration of 0-10,000 nM (starting concentration 10,000 nM, 3-fold dilution, 10 points), and the cell plate with 0.1% DMSO content was incubated at 37 °C and 5% CO2 for 8 d. 40 μL of Cell-Titer Glo reagent was added to test cell viability.

The test system of assay [2] is HCT-116 wild-type cells. Description: Proliferation inhibitory activity of compound on HCT-116 Wild Type cells. The assay is classed as cell-based. The conditions noted are these: Cell-Titer Glo, 8 d, 0-10,000 nM, 2-fold dilution, 10 points, 0.1% DMSO. Here is the method: Test case 2: Test on proliferation inhibitory activity of compound on HCT-116 Wild Type cells Materials and cells: HCT-116 wild-type cells were purchased from Botron Healthcare (China); RPMI-1640 medium, fetal bovine serum and penicillin-streptomycin were purchased from Thermo Fisher (United States); 384-well plates were purchased from PerkinElmer (United States); Cell-Titer Glo kit was purchased from Promega (United States).
Cell culture: HCT-116 wild-type cells were cultured with a RPMI-1640 medium containing […]+1% penicillin-streptomycin at 37 °C in 5% CO2. Only cells in the logarithmic growth phase could be used for the test.
Test of cell proliferation activity: Cell-Titer Glo kit was used to test the proliferation inhibitory activity of the compound on HCT-116 wild-type cells. The cell concentration was adjusted, 40 μL per well was inoculated into a 384-well plate and incubated overnight at 37 °C in […]. 40 nL of the compound was added to each well to reach a final concentration of 0-10,000 nM (starting concentration 10,000 nM, 2-fold dilution, 10 points), and the cell plate with 0.1% DMSO content was incubated at 37 °C and […] for 8 d. 40 μL of Cell-Titer Glo reagent was added to test cell viability.

What is called IC50 is the concentration at which inhibition is half-maximal. High values mean a need for much substance, low ones inhibition by little substance. `Cn1ncc2cc(C3CCCCN3C(=O)c3ccc4nc(N)c5cncn5c4c3)cnc21` (centres unmarked) [Example 23, (4-aminoimidazo[1,5-a]quinoxalin-8-yl) 2-(1-methylpyrazolo[3,4-b]pyridin-5-yl)piperidin-1-methanone]: the results for the IC50 in assay [1] and in assay [2] were 741 nM and more than 10000 nM, respectively.

Consider `Nc1nc2cc(F)c(C(=O)N3CCO[C@@H](c4ccc(C(F)(F)F)cc4)C3)cc2n2cncc12` [Example 15, (S)-(4-amino-7-fluoroimidazo[1,5-a]quinoxalin-8-yl)(2-(4-(trifluoromethyl)phenyl)morpholinyl)methanone], for which the IC50 in assay [1] (Homo sapiens, 192 h) was 933 nM; in assay [2] (Homo sapiens, 192 h), more than 10000 nM.

As to `C[C@@H]1COC[C@H](c2ccc(C(F)(F)F)cc2)N1C(=O)c1cc2c(cc1F)nc(N)c1cncn12` [Example 12, (4-amino-7-fluorimidazo[1,5-a]quinoxalin-8-yl)((3R,5S)-3-methyl-5-(4-(trifluoromethyl)phenyl)morpholinyl)methanone], the IC50 in assay [1] (Homo sapiens, 192 h) turned out to be 3.2 nM; in assay [2] (Homo sapiens, 192 h), 91.1 nM.

Consider `Nc1nc2ccc(C(=O)N3CCCCC3c3ccc4ccccc4n3)cc2n2cncc12` (centres unmarked) [Example 24], for which the IC50 in assay [1] (Homo sapiens, 192 h) is 242 nM; in assay [2] (Homo sapiens, 192 h), more than 10000 nM.

With `Nc1nc2ccc(C(=O)N3CCCCC3c3ccc(Oc4ccc(F)cc4)cc3)cc2n2cncc12` (centres unmarked) [Example 19], the IC50 in assay [1] (Homo sapiens, 192 h) was found to be 472 nM; in assay [2] (Homo sapiens, 192 h), 6380 nM.

As for `Nc1nc2cc(F)c(C(=O)N3CCC[C@@H]3c3ccc(C(F)(F)F)cc3)cc2n2cncc12` [Example 16, (R)-(4-amino-7-fluorimidazo[1,5-a]quinoxalin-8-yl)(2-(4-(trifluoromethyl)phenyl)pyrrolidin-1-yl)methanone], the IC50 is 1300 nM in assay [1] (Homo sapiens, 192 h) and more than 10000 nM in assay [2] (Homo sapiens, 192 h).

For the compound `Nc1nc2cc(F)c(C(=O)N3CC(c4ccc(C(F)(F)F)cn4)C3)cc2n2cncc12` [Example 10], the IC50 in assay [1] (Homo sapiens, 192 h) is 795 nM; in assay [2] (Homo sapiens, 192 h), more than 10000 nM.

With “(4-amino-7-fluimidazo[1,5-a]quinoxalin-8-yl)2-(1-methylpyr azolo[3,4-b]pyridin-5-yl)piperidin-1-methanone [Example 20]”, the figures for the IC50 in assay [1] and in assay [2] were 83.3 nM and more than 10000 nM, respectively.

For the compound `Nc1nc2cc(F)c(C(=O)N3CCC(c4ccc(C(F)(F)F)cn4)C3)cc2n2cncc12` (centres unmarked) [Example 8, (4-amino-7-fluorimidazo[1,5-a]quinoxalin-8-yl)(3-(5-(trifluoromethyl)pyridin-2-yl)pyrrolidin-1-yl)methanone], the IC50 in assay [1] (Homo sapiens, 192 h) is 396 nM; in assay [2] (Homo sapiens, 192 h), more than 10000 nM.

Consider `Nc1nc2cc(F)c(C(=O)N3CCC[C@H](c4ccc(C(F)(F)F)cc4)C3)cc2n2cncc12` [Example 13A], for which the IC50 in assay [1] (Homo sapiens, 192 h) is 516 nM; in assay [2] (Homo sapiens, 192 h), more than 10000 nM.

Consider `Nc1nc2cc(F)c(C(=O)N3CCC[C@@H](c4ccc(C(F)(F)F)cc4)C3)cc2n2cncc12` [Example 13B], for which the IC50 in assay [1] (Homo sapiens, 192 h) was more than 3000 nM; in assay [2] (Homo sapiens, 192 h) it was more than 10000 nM.

On to `Nc1nc2cc(Cl)c(C(=O)N3CCCC[C@@H]3c3ccc(F)cc3)cc2n2cncc12` [Example 6, (2R)-2-(4-fluorophenyl)piperidyl4-amino-7-chloro(10-hydroimidazo[1,5-a]quinoxalin-8-yl)one], for which the IC50 was found to be 28.8 nM in assay [1] (Homo sapiens, 192 h) and 2720 nM in assay [2] (Homo sapiens, 192 h).

On to `Nc1nc2cc(Cl)c(C(=O)N3CCOCC3c3ccc(C(F)(F)F)cc3)cc2n2cncc12` (stereo in doubt) [Example 4A, (3R)-3-[4-(trifluoromethyl)phenyl]morpholin-4-yl 4-amino-7-chloro(10-hydroimidazo[1,5-a]quinoxalin-8-yl)one], for which the IC50 in assay [1] (Homo sapiens, 192 h) was 6.5 nM; in assay [2] (Homo sapiens, 192 h), 512 nM.

Turning to `Nc1nc2ccc(C(=O)N3CCCC[C@@H]3c3ccc(F)cc3)cc2n2cccc12` [Example 1, (R)-(4-aminopyrrolo[1,2-a]quinoxalin-8-yl)(2-(4-fluorophenyl)piperidin-1-yl)methanone], the IC50 in assay [1] (Homo sapiens, 192 h) stood at 3880 nM; in assay [2] (Homo sapiens, 192 h), 10800 nM.

As for `Nc1nc2cc(F)c(C(=O)N3CCC[C@H]3c3ccc(C(F)(F)F)cc3)cc2n2cncc12` [Example 17, (S)-(4-amino-7-fluorimidazo[1,5-a]quinoxalin-8-yl)(2-(4-(trifluoromethyl)phenyl)pyrrolidin-1-yl)methanone], the IC50 in assay [1] (Homo sapiens, 192 h) was more than 3000 nM; in assay [2] (Homo sapiens, 192 h), more than 10000 nM.

For `Nc1nc2ccc(C(=O)N3CCCCC3c3ccc(C(F)(F)F)cn3)cc2n2cncc12` (centres unmarked) [Example 21], the values for the IC50 in assay [1] and in assay [2] were 80.4 nM and more than 10000 nM, respectively.

In the case of `Nc1nc2ccc(C(=O)N3CCCCC3c3ccc(OC(F)(F)F)cc3)cc2n2cncc12` (centres unmarked) [Example 22, (4-aminoimidazo[1,5-a]quinoxalin-8-yl)2-(4-(trifluoromethoxy)phenyl)piperidin-1-yl ketone], the values for the IC50 in assay [1] and in assay [2] were 45.2 nM and 8130 nM, respectively.

For the compound `Nc1nc2ccc(C(=O)N3CCCC[C@@H]3c3ccc(F)cc3)cc2n2cncc12` [Example 14, (R)-(4-aminoimidazo[1,5-a]quinoxalin-8-yl)(2-(4-fluorophenyl)piperidin-1-yl)methanone], the IC50 in assay [1] (Homo sapiens, 192 h) was 671 nM; in assay [2] (Homo sapiens, 192 h), more than 10000 nM.

For `Nc1nc2cc(Cl)c(C(=O)N3CCOCC3c3ccc(C(F)(F)F)cc3)cc2n2cncc12` (stereo in doubt) [Example 4B, (3S)-3-[4-(trifluoromethyl)phenyl]morpholin-4-yl 4-amino-7-chloro(10-hydroimidazo[1,5-a]quinoxalin-8-yl)one], the IC50 in assay [1] (Homo sapiens, 192 h) was 2780 nM; in assay [2] (Homo sapiens, 192 h) it was 6520 nM.

`Nc1nc2ccc(C(=O)N3CCCCC3c3cnc4cccnc4c3)cc2n2cncc12` (centres unmarked) [Example 18]: the IC50 in assay [1] (Homo sapiens, 192 h) is 1400 nM; in assay [2] (Homo sapiens, 192 h), more than 10000 nM.

As for `Nc1nc2cc(F)c(C(=O)N3CCCC[C@@H]3c3ccc(F)cc3)cc2n2cncc12` [Example 7, (R)-(4-amino-7-fluoroimidazo[1,5-a]quinoxalin-8-yl)(2-(4-fluorophenyl)piperidin-1-yl)methanone], the IC50 turned out to be 24.3 nM in assay [1] (Homo sapiens, 192 h) and 1690 nM in assay [2] (Homo sapiens, 192 h).

Take `Nc1nc2cc(F)c(C(=O)N3CCCC(c4ccc(C(F)(F)F)cc4)C3)cc2n2cncc12` (centres unmarked) [Example 13, (4-amino-7-fluimidazo[1,5-a]quinoxalin-8-yl)(3-(4-(trifluoromethyl)phenyl)piperidin-1-yl)methanone]: the IC50 in assay [1] (Homo sapiens, 192 h) is 458 nM; in assay [2] (Homo sapiens, 192 h) it was 4180 nM.
